Target: PI3Kα E545K (Homo sapiens, UniProt P42336, E545K)
Test: PI3Kα E545K mutant in vitro cell based assay, MDA-MB-361 cells
Design: MDA-MB-361 (ATCC-HTB-27) cell line (PI3Kα E545K); host or cells: MDA-MB-361
Settings: MDA-MB-361 cell line, 0% FBS, no insulin, 3 hours treatment
From the text: PI3K-Alpha Kinase (PI3Kα) Activity: Wild-Type PI3Kα, H1047R Mutant PI3Kα, and E545K Mutant PI3Kα In Vitro Cell Based Assays and Determination of IC50 Values for Inhibitors
The MDA-MB-453 (ATCC-HTB-131) cell line (PI3Kα H1047R) and MCF-7 (ATCC-HTB-22) cell line (PI3Kα E545K), MDA-MB-361 (ATCC-HTB-27) cell line (PI3Kα E545K), and SKBR3 (ATCC-HTB-30) cell line (wild type PI3Kα) were obtained from the American Type Culture Collection (Manassas, VA). MDA-MB-453 cells were maintained in Dulbecco's Modified Eagle Media (DMEM, Gibco 12430) supplemented with 10% Fetal Bovine Serum, heat inactivated (FBS HI, Gibco 10082), 1× non-essential amino acids (NEAA, Gibco 11140), 1 mM sodium pyruvate (Gibco 11360) and 1× Anti-Anti (Gibco 15240). MCF-7 cells were maintained in Minimum Essential Media (MEM) (Gibco 11095) supplemented with 10% Fetal Bovine Serum, heat inactivated (FBS HI, Gibco 10082), 1× non-essential amino acids (NEAA, Gibco 11140), 1 mM sodium pyruvate (Gibco 11360), 1× Anti-Anti (Gibco 15240) and 10 μg/mL human insulin (Sigma I 9278). MDA-MB-361 cells were maintained in Dulbecco's Modified Eagle Media (DMEM, Gibco 12430) supplemented with 20% Fetal Bovine Serum, heat inactivated (FBS HI, Gibco 10082), 1× non-essential amino acids (NEAA, Gibco 11140), 1 mM sodium pyruvate (Gibco 11360) and 1× Anti-Anti (Gibco 15240). SKBR3 cells were maintained in McCoy's 5A (Gibco 16600) supplemented with 10% Fetal Bovine Serum, heat inactivated (FBS HI, Gibco 10082), and 1× Anti-Anti (Gibco 15240). Cultures were maintained in a humidified incubator at 37° C. under 5% CO2/95% air.
For compound testing in 0% FBS, MDA-MB-453, MCF-7 and SKBR3 cells were seeded at a density of 1.5×10^4, 1.0×10^4, and 1.0×10^4 cells, respectively, per well in white 384-well plates in 20 μl of Minimum Essential Media (MEM) assay media with 1×NEAA, 1 mM sodium pyruvate, and 1 μg/mL human insulin (Sigma 19278) (Assay Medium); while MDA-MB-361 cells were seeded at a density of 1.5×10^4 per well in white 384-well plates in 20 μl Assay Medium without insulin. After plating, cells were allowed to attach overnight. Compounds dissolved in 10 mM stock solutions in DMSO were serially diluted 1:3 in DMSO to generate a 10-point dilution series and plated using an acoustic liquid handler system (Echo 550 Series Liquid Handler, Labcyte). A 5× intermediate compound dilution plate in MEM with 1×NEAA and 1 mM sodium pyruvate (150 μM starting compound concentration in 1.5% DMSO) was then prepared. Five μl of the intermediate serially diluted compounds were added to the cell plate to final concentrations ranging from […] in 0.3% DMSO. 0.3% DMSO alone was used to establish the maximum (MAX) signal and GDC-0032 at a final concentration of 1 μM was used as a reference compound for the minimum (MIN) signal. After 3 hours treatment, the medium was removed, and the cells were lysed in 10 μL of 1× SureFire Lysis buffer with shaking for 10 minutes at room temperature. The Acceptor Mix (Reaction Buffer 1+Reaction Buffer 2+Activation Buffer+SureFire Ultra Acceptor Beads) was prepared by diluting Activation buffer 25-fold in combined Reaction Buffer 1 and Reaction Buffer 2.
The Acceptor beads were diluted 50-fold in the combined Reaction Buffers. Five μL of Acceptor Mix was added to each well, the plate was sealed and covered with foil and incubated for 1 hour at room temperature. The Donor Mix (dilution buffer+SureFire Ultra Donor Beads) was prepared by diluting Donor Beads 50-fold in dilution buffer. Five μL of the Donor Mix was added to each well and the plate sealed and covered with foil and incubated for 1-2 hours at room temperature in the dark. The plates were read on a Neo2 plate reader instrument from Biotek using standard AlphaLisa settings.
Compounds were tested in duplicate and the % inhibition at each compound concentration was used to generate two dose response curves. One IC50 was generated using average % inhibition at each compound concentration. […]

Sequence of PI3Kα E545K (P42336 whole entry E545K): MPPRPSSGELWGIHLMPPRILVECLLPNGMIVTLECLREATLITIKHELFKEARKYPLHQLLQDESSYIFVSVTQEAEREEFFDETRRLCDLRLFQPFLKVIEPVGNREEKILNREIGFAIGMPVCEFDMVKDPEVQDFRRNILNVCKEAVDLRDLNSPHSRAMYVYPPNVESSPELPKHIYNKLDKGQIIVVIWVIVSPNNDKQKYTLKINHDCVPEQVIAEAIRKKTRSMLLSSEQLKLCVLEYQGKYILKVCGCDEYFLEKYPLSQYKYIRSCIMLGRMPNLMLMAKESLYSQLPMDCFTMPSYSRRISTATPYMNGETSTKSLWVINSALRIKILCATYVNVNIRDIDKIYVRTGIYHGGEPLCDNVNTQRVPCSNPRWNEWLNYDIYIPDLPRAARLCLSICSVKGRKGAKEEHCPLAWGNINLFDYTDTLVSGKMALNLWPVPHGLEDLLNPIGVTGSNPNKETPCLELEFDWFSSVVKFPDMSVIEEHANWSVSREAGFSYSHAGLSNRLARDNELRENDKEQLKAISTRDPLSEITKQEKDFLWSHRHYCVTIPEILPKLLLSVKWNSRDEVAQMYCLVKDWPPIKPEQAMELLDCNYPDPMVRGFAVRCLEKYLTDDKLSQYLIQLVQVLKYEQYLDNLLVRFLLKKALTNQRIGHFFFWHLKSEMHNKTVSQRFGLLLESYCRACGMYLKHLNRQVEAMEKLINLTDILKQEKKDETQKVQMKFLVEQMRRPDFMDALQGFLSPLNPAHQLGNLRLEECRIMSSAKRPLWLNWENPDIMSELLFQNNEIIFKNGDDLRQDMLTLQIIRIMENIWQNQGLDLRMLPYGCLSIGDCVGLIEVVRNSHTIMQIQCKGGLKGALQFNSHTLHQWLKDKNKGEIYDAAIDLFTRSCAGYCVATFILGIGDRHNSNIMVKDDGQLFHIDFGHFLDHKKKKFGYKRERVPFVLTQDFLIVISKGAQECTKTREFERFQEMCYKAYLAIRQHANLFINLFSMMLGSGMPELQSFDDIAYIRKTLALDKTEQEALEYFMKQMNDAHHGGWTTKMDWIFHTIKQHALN
Sequence of PI3Kα E545K (P27986 whole entry partner): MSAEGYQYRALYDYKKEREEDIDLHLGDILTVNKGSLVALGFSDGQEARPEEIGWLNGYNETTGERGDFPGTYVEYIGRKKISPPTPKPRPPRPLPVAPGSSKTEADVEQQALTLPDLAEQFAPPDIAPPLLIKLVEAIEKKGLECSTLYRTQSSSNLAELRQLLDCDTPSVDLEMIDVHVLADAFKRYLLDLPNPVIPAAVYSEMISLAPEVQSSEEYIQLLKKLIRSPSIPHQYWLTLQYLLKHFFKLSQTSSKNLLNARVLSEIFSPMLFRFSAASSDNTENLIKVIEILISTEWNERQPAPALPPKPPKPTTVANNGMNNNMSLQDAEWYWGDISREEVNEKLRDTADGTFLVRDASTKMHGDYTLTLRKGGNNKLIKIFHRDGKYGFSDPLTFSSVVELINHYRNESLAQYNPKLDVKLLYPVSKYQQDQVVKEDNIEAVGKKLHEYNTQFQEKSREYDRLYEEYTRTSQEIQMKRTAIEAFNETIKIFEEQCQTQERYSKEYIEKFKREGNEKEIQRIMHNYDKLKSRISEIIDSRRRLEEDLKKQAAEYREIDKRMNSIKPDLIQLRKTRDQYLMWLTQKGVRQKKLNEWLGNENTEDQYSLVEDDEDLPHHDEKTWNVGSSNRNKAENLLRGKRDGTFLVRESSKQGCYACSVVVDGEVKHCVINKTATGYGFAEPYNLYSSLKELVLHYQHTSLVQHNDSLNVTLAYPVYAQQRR

IC50 [nM]	Compound
< 500	Cc1cc([C@@H](C)Oc2ccc(Cl)nc2C(N)=O)c2oc(-c3ccn4nc(C)cc4c3)c(C)c(=O)c2c1 [Example 76C, 6-Chloro-3-[(1R)-1-[3,6-dimethyl-2-(2-methylpyrazol[1,5-a]pyridin-5-yl)-4-oxo-chromen-8-yl]ethoxy]pyridine-2-carboxamide]
< 500	Cc1cc([C@@H](C)Oc2ccc(Cl)nc2C(N)=O)c2oc(-c3ccc4nn(C5COC5)cc4c3)c(C)c(=O)c2c1 [Example 77C, 6-Chloro-3-[(1R)-1-[3,6-dimethyl-2-[2-(oxetan-3-yl)indazol-5-yl]-4-oxo-chromen-8-yl]ethoxy]pyridine-2-carboxamide]
< 500	CCc1nc2ccc(-c3oc4c([C@@H](C)Oc5ccc(Cl)nc5C(N)=O)cc(C)cc4c(=O)c3C)cc2s1 [Example 83C, 6-Chloro-3-[(1R)-1-[2-(2-ethyl-1,3-benzothiazol-6-yl)-3,6-dimethyl-4-oxo-chromen-8-yl]ethoxy]pyridine-2-carboxamide]
< 500	CCc1nc2ccc(-c3oc4c([C@@H](C)Oc5ccc(Cl)nc5C(N)=O)cc(C)cc4c(=O)c3C)cc2o1 [Example 84C, 6-Chloro-3-[(1R)-1-[2-(2-ethyl-1,3-benzoxazol-6-yl)-3,6-dimethyl-4-oxo-chromen-8-yl]ethoxy]pyridine-2-carboxamide]
< 500	Cc1cc([C@@H](C)Oc2ccc(Cl)cc2S(N)(=O)=O)c2oc(-c3cnc4ccoc4c3)c(C)c(=O)c2c1 [Example 100C, 5-Chloro-2-[(1R)-1-(2-furo[3,2-b]pyridin-6-yl-3,6-dimethyl-4-oxo-chromen-8-yl)ethoxy]benzenesulfonamide]
< 500	Cc1cc([C@@H](C)Oc2ccccc2S(N)(=O)=O)c2oc(-c3ccccc3)c(C)c(=O)c2c1 [Example 102C, 2-[(1R)-1-(3,6-Dimethyl-4-oxo-2-phenyl-chromen-8-yl)ethoxy]benzenesulfonamide]
< 500	Cc1cc([C@@H](C)Oc2ccc(Cl)nc2C(N)=O)c2oc(-c3ccc4c(c3)OCCN4C)c(C)c(=O)c2c1 [Example 104A, 6-Chloro-3-[(1R)-1-[3,6-dimethyl-2-(4-methyl-2,3-dihydro-1,4-benzoxazin-7-yl)-4-oxo-chromen-8-yl]ethoxy]pyridine-2-carboxamide]
< 500	Cc1cc([C@@H](C)Oc2ccc(F)cc2S(N)(=O)=O)c2oc(-c3cnc4ccoc4c3)c(C)c(=O)c2c1 [Example 106C, 5-Fluoro-2-[(1R)-1-(2-furo[3,2-b]pyridin-6-yl-3,6-dimethyl-4-oxo-chromen-8-yl)ethoxy]benzenesulfonamide]
< 500	Cc1cc([C@@H](C)Oc2ccc(Cl)nc2S(N)(=O)=O)c2oc(-c3cnn(C[C@]45C[C@H](CO4)C5)c3)c(C)c(=O)c2c1 [Example 118C, 6-Chloro-3-[(1R)-1-[3,6-dimethyl-2-[1-(2-oxabicyclo[2.1.1]hexan-1-ylmethyl)pyrazol-4-yl]-4-oxo-chromen-8-yl]ethoxy]pyridine-2-sulfonamide]
< 500	Cc1cc([C@@H](C)Oc2ccc(Cl)nc2C(N)=O)c2oc(-c3ccc4cc[nH]c(=O)c4c3)c(C)c(=O)c2c1 [Example 120A, 6-Chloro-3-[(1R)-1-[3,6-dimethyl-4-oxo-2-(1-oxo-2H-isoquinolin-7-yl)chromen-8-yl]ethoxy]pyridine-2-carboxamide]
< 500	CONS(=O)(=O)c1nc(Cl)ccc1O[C@H](C)c1cc(C)cc2c(=O)c(C)c(-c3cnn(CC(C)(C)O)c3)oc12 [Example 121C, 6-Chloro-3-[(1R)-1-[2-[1-(2-hydroxy-2-methyl-propyl)pyrazol-4-yl]-3,6-dimethyl-4-oxo-chromen-8-yl]ethoxy]-N-methoxy-pyridine-2-sulfonamide]
< 500	Cc1cc([C@@H](C)Oc2ccc(C)nc2S(N)(=O)=O)c2oc(-c3ccccc3)c(C)c(=O)c2c1 [Example 122C, 3-[(1R)-1-(3,6-Dimethyl-4-oxo-2-phenyl-chromen-8-yl)ethoxy]-6-methyl-pyridine-2-sulfonamide]
< 500	Cc1cc([C@@H](C)Oc2ccc(Cl)nc2S(N)(=O)=O)c2oc(-c3cnn(CC4(C#N)CC4)c3)c(C)c(=O)c2c1 [Example 124C, 6-Chloro-3-[(1R)-1-[2-[1-[(1-cyanocyclopropyl)methyl]pyrazol-4-yl]-3,6-dimethyl-4-oxo-chromen-8-yl]ethoxy]pyridine-2-sulfonamide]
< 500	Cc1cc([C@@H](C)Oc2ccc(Cl)nc2C(N)=O)c2oc(-c3ccc4nn([C@H]5C[C@H](O)C5)cc4c3)c(C)c(=O)c2c1 [Example 134C, 6-Chloro-3-[(1R)-1-[2-[2-(3-hydroxycyclobutyl)indazol-5-yl]-3,6-dimethyl-4-oxo-chromen-8-yl]ethoxy]pyridine-2-carboxamide]

Source: patent US20240182460A1, “ALLOSTERIC CHROMENONE INHIBITORS OF PHOSPHOINOSITIDE 3-KINASE (PI3K) FOR THE TREATMENT OF DISEASE” (PETRA PHARMA CORPORATION, priority 2022, published 2024)
